The values below come from patent US7973219B2, “Method for producing transgenic plants resistant to weed control compounds which disrupt the porphyrin pathways of plants” (Sumitomo Chemical Company, Limited, priority 1998, dated 2011).

For this assay, the system named is tobacco into which bchH gene was introduced. The assay is described as follows: Leaf piece chlorophyll test, tobacco into which bchH gene was introduced. Type of assay: in vivo. As to conditions: 0.3 ppm, Table 4; for activity at 0.3 ppm: Nicotiana tabacum, 168 h, 7 days in light, treated vs untreated leaf pieces, read-out: Resistant level to test compound; for Total chlorophyll content treated-leaf: leaf pieces 7 days in light place. As for the experimental part: Then, according to the method described in Manual for Gene Manipulation of Plant (by Hirofumi UCHIMIYA, Kodan-sha Scientific, 1992), the gene was introduced into tobacco. Agrobacterium strain bearing plasmid pBIBCH was cultured at 28° C. overnight in LB medium and then leaf pieces of tobacco cultured sterilely were dipped in the liquid culture medium. The leaf pieces were cultured at room temperature for 2 days in Murashige-Skoog medium (MS-medium, described in Murasige T. and Skoog F., Physiol. Plant. (1962) 15, p 473) containing 0.8% agar, 0.1 mg/liter naphthalene acetic acid and 1.0 mg/liter benzyl aminopurine. Then, the leaf pieces were washed with sterilized water and cultured for 7 days on MS medium containing 0.8% agar, 0.1 mg/liter naphthalene acetic acid, 1.0 mg/liter benzyl aminopurine and 500 μg/ml cefotaxime. The leaf pieces were transplanted onto MS medium containing 0.8% agar, 0.1 mg/liter naphthalene acetic acid, 1.0 mg/liter benzyl aminopurine, 500 μg/ml cefotaxime and 100 μg/ml kanamycin (hereinafter referred to as selective MS medium) and cultured on the medium continuously for 4months with transplanting the tobacco leaf pieces onto fresh selective MS medium every 1 month. During culture, stem-leaf differentiated shoots were appeared from the tobacco leaf pieces, these shoots were transplanted to MS medium containing 0.8% agar, 300 μg/ml cefotaxime and 50 μg/ml kanamycin to induce roots to obtain regenerated plants. The resultant regenerated plant was transplanted and cultured on MS medium 0.8% agar and 50 μg/ml kanamycin to obtain tobacco plant into which bchH gene was introduced. Similarly, tobacco leaf pieces were infected with Agrobacterium strain bearing pNO to obtain regenerated plant from the tobacco leaf pieces and tobacco plant (hereinafter referred to as control recombinant tobacco).
The tobacco leaves into which bchH gene was introduced and control recombinant tobacco leaves obtained in Example 5 were collected and each leaf was divided into the right and left equivalent pieces along the main vein, respectively. To one piece was applied an aqueous solution containing 0.3 ppm PPO inhibitory-type herbicidal compound of Structure 8, while, to the other piece was not applied the compound. These leaf pieces were placed on MS medium containing 0.8% agar and allowed to stand at room temperature for 7 days in light place. Then, each leaf piece was ground with pestle and mortar in 5 ml of 80% aqueous acetone solution to extract chlorophyll. The extract liquid was diluted with 80% aqueous acetone solution and the absorbance was measured at 750 nm, 663 nm and 645 nm to calculate total chlorophyll content according to the method described by Macknney G., J. Biol. Chem. (1941) 140, p 315. The results obtained from 4 clones of tobacco into which bchH gene was introduced (BCH1 to 4) and control recombinant tobacco is shown in Table 4. In the table, the resistant level to the herbicidal compound was represented by percentages of the total chlorophyll content of leaf pieces treated with herbicidal compound to that of untreated leaf pieces.
The tobacco clone into which bchH gene was introduced and control recombinant tobacco were also treated in the same manner with the solution containing PPO inhibitory-type herbicidal compound represented by the above Structure 3, 7, 10, 11, 13, 17, 23, 24, 25, 27, 28, 30 or 35, and the resistant level to each herbicidal compound was measured. In the table, the resistant levels to the herbicidal compound were represented by percentages of the total chlorophyll content of leaf pieces treated with the herbicidal compound to that of untreated leaf pieces.

Where two headings read alike, the source gives them in different places.

Take `C#CCOc1cc(N2C(=O)C3=C(CCCC3)C2=O)c(F)cc1Cl` [Structure 8]: the activity at 0.3 ppm is, setting by setting: (clone BCH-1) 126%; (clone BCH-2) 104%; (clone BCH-3) 81.3%; (clone BCH-4) 70.2%. For the same compound, the “Total chlorophyll content treated-leaf” value reads like this: (clone BCH-1) 1.70 mg/g-fresh weight; (clone BCH-2) 2.14 mg/g-fresh weight; (clone BCH-3) 1.57 mg/g-fresh weight; (clone BCH-4) 1.06 mg/g-fresh weight.
